Laboratory results taken from patent publication US12655126B2, “Imidazole-pyrazole derivatives as antibacterials” (Hoffmann-La Roche Inc., priority 2020, dated 2026).
Where a name gives a salt, the structure may show the parent alone.

System: Acinetobacter baumannii ATCC17961
Assay: Antimicrobial susceptibility testing: 90% growth inhibitory concentration (IC90) determination
Type: cell-based
Settings: Acinetobacter baumannii ATCC17961; Iso-Sensitest broth; growth by OD 600 nm over 16 h; 90% growth inhibitory concentration; read-out: ATCC 17961 IC90
Procedure: Antimicrobial Susceptibility Testing:
90% Growth Inhibitory Concentration (IC90) Determination
The in vitro antimicrobial activity of the compounds was determined according to the following procedure:
The assay used a 10-points Iso-Sensitest broth medium to measure quantitatively the in vitro activity of the compounds against Acinetobacter baumannii ATCC17961.
Stock compounds in DMSO were serially twofold diluted (e.g. range from 50 to 0.097 μM final concentration) in 384 wells microtiter plates and inoculated with 49 μl the bacterial suspension in Iso-Sensitest medium to have a final cell concentration of ˜5×10^(5) CFU/ml in a final volume/well of 50 ul/well. Microtiter plates were incubated at 35±2° C.
Bacterial cell growth was determined with the measurement of optical density at λ=600 nm each minutes over a time course of 16 h. Growth inhibition was calculated during the logarithmic growth of the bacterial cells with determination of the concentration inhibiting 50% (IC50) and 90% (IC90) of the growth.
Table 1 provides the 90% growth inhibitory concentrations (IC90) in micromoles per liter of the compounds of present invention obtained against the strain Acinetobacter baumannii ATCC17961.

| Structure (SMILES) | IC90 [nM] |
| --- | --- |
| CNC(=O)CCNc1ccc(-n2cc(-c3cnc(C(=O)Nc4ccc(C(=O)N5CCN(C(=O)C6CC[N+](C)(C)CC6)CC5)c(Cl)c4)n3C)c(C(F)(F)F)n2)nc1 [Example L2, N-[3-chloro-4-[4-(1,1-dimethylpiperidin-1-ium-4-carbonyl)piperazine-1-carbonyl]phenyl]-5-[1-[5-[[3-keto-3-(methylamino)propyl]amino]-2-pyridyl]-3-(trifluoromethyl)pyrazol-4-yl]-1-methyl-imidazole-2-carboxamide] | 330 |
| Cn1c(-c2cn(-c3cc(Cl)c(N)cn3)nc2C(F)(F)F)cnc1C(=O)Nc1ccc(C(=O)N2CCN(C(=O)C3CC[N+](C)(C)CC3)CC2)c(Cl)c1 [Example A12, 5-[1-(5-amino-4-chloro-2-pyridyl)-3-(trifluoromethyl)pyrazol-4-yl]-N-[3-chloro-4-[4-(1,1-dimethylpiperidin-1-ium-4-carbonyl)piperazine-1-carbonyl]phenyl]-1-methyl-imidazole-2-carboxamide] | 270 |
| Cn1c(-c2cn(-c3ccc(N)cn3)nc2C(F)(F)F)cnc1C(=O)Nc1ccc(C(=O)N2CCC(C(=O)N3CC[N+](C)(C)CC3)CC2)c(Cl)c1 [Example H1, 5-[1-(5-Amino-2-pyridyl)-3-(trifluoromethyl)pyrazol-4-yl]-N-[3-chloro-4-[4-(4,4-dimethylpiperazin-4-ium-1-carbonyl)piperidine-1-carbonyl]phenyl]-1-methyl-imidazole-2-carboxamide; formate] | 610 |
| COCCNc1ccc(-n2cc(-c3cnc(C(=O)Nc4ccc(C(=O)N5CCN(C(=O)C6CC[N+](C)(C)CC6)CC5)c(Cl)c4)n3C)c(C(F)(F)F)n2)nc1 [Example E2, N-[3-chloro-4-[4-(1,1-dimethylpiperidin-1-ium-4-carbonyl)piperazine-1-carbonyl]phenyl]-5-[1-[5-(2-methoxyethylamino)-2-pyridyl]-3-(trifluoromethyl)pyrazol-4-yl]-1-methyl-imidazole-2-carboxamide; formate] | 300 |
| Cc1ccc(-n2cc(-c3cnc(C(=O)Nc4ccc(C(=O)N5CCN(C(=O)C6CC[N+](C)(C)CC6)CC5)c(Cl)c4)n3C)c(C(F)(F)F)n2)nc1 [Example A4, N-[3-chloro-4-[4-(1,1-dimethylpiperidin-1-ium-4-carbonyl)piperazine-1-carbonyl]phenyl]-1-methyl-5-[1-(5-methyl-2-pyridyl)-3-(trifluoromethyl)pyrazol-4-yl]imidazole-2-carboxamide; formate] | 250 |
| Cn1c(-c2cn(-c3ccc([N+](=O)[O-])cn3)nc2C(F)(F)F)cnc1C(=O)Nc1ccc(C(=O)N2CCN(C(=O)[C@@H]3[C@@H](O)CC[N+]3(C)C)CC2)c(Cl)c1 [Example B7, N-[3-chloro-4-[4-[(2S,3S)-3-hydroxy-1,1-dimethyl-pyrrolidin-1-ium-2-carbonyl]piperazine-1-carbonyl]phenyl]-1-methyl-5-[1-(5-nitro-2-pyridyl)-3-(trifluoromethyl)pyrazol-4-yl]imidazole-2-carboxamide; formate] | 1600 |
| Cn1c(-c2cn(-c3cnc(N)cn3)nc2C(F)(F)F)cnc1C(=O)Nc1ccc(C(=O)N2CCN(C(=O)C3CC[N+](C)(C)CC3)CC2)c(Cl)c1 [Example D16, 5-[1-(5-aminopyrazin-2-yl)-3-(trifluoromethyl)pyrazol-4-yl]-N-[3-chloro-4-[4-(1,1-dimethylpiperidin-1-ium-4-carbonyl)piperazine-1-carbonyl]phenyl]-1-methyl-imidazole-2-carboxamide] | 320 |
| Cn1c(-c2cn(-c3ncccn3)nc2C(F)(F)F)cnc1C(=O)Nc1ccc(C(=O)N2CCN(C(=O)[C@@H]3C[C@@H](O)C[N+]3(C)C)CC2)c(Cl)c1 [Example B2, N-[3-chloro-4-[4-[(2S,4R)-4-hydroxy-1,1-dimethyl-pyrrolidin-1-ium-2-carbonyl]piperazine-1-carbonyl]phenyl]-1-methyl-5-[1-pyrimidin-2-yl-3-(trifluoromethyl)pyrazol-4-yl]imidazole-2-carboxamide; formate] | 1600 |
| Cc1cc(-n2cc(-c3cnc(C(=O)Nc4ccc(C(=O)N5CCN(C(=O)C6CC[N+](C)(C)CC6)CC5)c(Cl)c4)n3C)c(C(F)(F)F)n2)ncc1N [Example A9, 5-[1-(5-amino-4-methyl-2-pyridyl)-3-(trifluoromethyl)pyrazol-4-yl]-N-[3-chloro-4-[4-(1,1-dimethylpiperidin-1-ium-4-carbonyl)piperazine-1-carbonyl]phenyl]-1-methyl-imidazole-2-carboxamide] | 290 |
| Cn1c(-c2cn(-c3ccc(N)cn3)nc2C(F)(F)F)cnc1C(=O)Nc1ccc(C(=O)N2CCN(C(=O)[C@@H]3CC(O)CC[N+]3(C)C)CC2)c(Cl)c1 (stereo partly drawn) [Example D15, 5-[1-(5-Amino-2-pyridyl)-3-(trifluoromethyl)pyrazol-4-yl]-N-[3-chloro-4-[4-[(2S)-4-hydroxy-1,1-dimethyl-piperidin-1-ium-2-carbonyl]piperazine-1-carbonyl]phenyl]-1-methyl-imidazole-2-carboxamide;formate] | 550 |
| Cn1c(-c2cn(-c3ccc(C(N)=O)cn3)nc2C(F)(F)F)cnc1C(=O)Nc1ccc(C(=O)N2CCN(C(=O)C3CC[N+](C)(C)CC3)CC2)c(Cl)c1 [Example A2, 6-[4-[2-[[3-chloro-4-[4-(1,1-dimethylpiperidin-1-ium-4-carbonyl)piperazine-1-carbonyl]phenyl]carbamoyl]-3-methyl-imidazol-4-yl]-3-(trifluoromethyl)pyrazol-1-yl]pyridine-3-carboxamide; formate] | 980 |
| Cn1c(-c2cn(-c3ccc(N)cn3)nc2C(F)F)cnc1C(=O)Nc1ccc(C(=O)N2CCN(C(=O)C3CC[N+](C)(C)CC3)CC2)c(Cl)c1 [Example A5, 5-[1-(5-amino-2-pyridyl)-3-(difluoromethyl)pyrazol-4-yl]-N-[3-chloro-4-[4-(1,1-dimethylpiperidin-1-ium-4-carbonyl)piperazine-1-carbonyl]phenyl]-1-methyl-imidazole-2-carboxamide; 2,2,2-trifluoroacetate] | 760 |
| CNc1ccc(-n2cc(-c3cnc(C(=O)Nc4ccc(C(=O)N5CCN(C(=O)C6CC[N+](C)(C)CC6)CC5)c(C)c4)n3C)c(C(F)(F)F)n2)nc1 [Example E7, N-[4-[4-(1,1-dimethylpiperidin-1-ium-4-carbonyl)piperazine-1-carbonyl]-3-methyl-phenyl]-1-methyl-5-[1-[5-(methylamino)-2-pyridyl]-3-(trifluoromethyl)pyrazol-4-yl]imidazole-2-carboxamide; formate] | 330 |
| CNc1ccc(-n2cc(-c3cnc(C(=O)Nc4ccc(C(=O)N5CCN(C(=O)C[N+]6(C)CCC(O)C6)CC5)c(Cl)c4)n3C)c(C(F)(F)F)n2)nc1 (stereo not drawn) [Example E5, N-[3-chloro-4-[4-[2-(3-hydroxy-1-methyl-pyrrolidin-1-ium-1-yl)acetyl]piperazine-1-carbonyl]phenyl]-1-methyl-5-[1-[5-(methylamino)-2-pyridyl]-3-(trifluoromethyl)pyrazol-4-yl]imidazole-2-carboxamide; formate] | 220 |
| CCNc1ccc(-n2cc(-c3cnc(C(=O)Nc4ccc(C(=O)N5CCN(C(=O)C6CC[N+](C)(C)CC6)CC5)c(Cl)c4)n3C)c(C(F)(F)F)n2)nc1 [Example E3, N-[3-chloro-4-[4-(1,1-dimethylpiperidin-1-ium-4-carbonyl)piperazine-1-carbonyl]phenyl]-5-[1-[5-(ethylamino)-2-pyridyl]-3-(trifluoromethyl)pyrazol-4-yl]-1-methyl-imidazole-2-carboxamide; formate] | 390 |

Same assay, conditions: Acinetobacter baumannii, ATCC17961, 16 h, read-out: ATCC 17961 IC90

| Structure (SMILES) | IC90 [nM] |
| --- | --- |
| Cn1c(-c2cn(-c3ncccn3)nc2C(F)(F)F)cnc1C(=O)Nc1ccc(C(=O)N2CCN(C(=O)C3CC[N+](C)(C)CC3)CC2)c(Cl)c1 [Example B1, N-[3-Chloro-4-[4-(1,1-dimethylpiperidin-1-ium-4-carbonyl)piperazine-1-carbonyl]phenyl]-1-methyl-5-[1-pyrimidin-2-yl-3-(trifluoromethyl)pyrazol-4-yl]imidazole-2-carboxamide; formate] | 940 |
| Cn1c(-c2cn(-c3ccc(NCCN)cn3)nc2C(F)(F)F)cnc1C(=O)Nc1ccc(C(=O)N2CCN(C(=O)C3CC[N+](C)(C)CC3)CC2)c(Cl)c1 [Example M1, 5-[1-[5-(2-aminoethylamino)-2-pyridyl]-3-(trifluoromethyl)pyrazol-4-yl]-N-[3-chloro-4-[4-(1,1-dimethylpiperidin-1-ium-4-carbonyl)piperazine-1-carbonyl]phenyl]-1-methyl-imidazole-2-carboxamide; 2,2,2-trifluoroacetic acid; 2,2,2-trifluoroacetate] | 100 |
| Cn1c(-c2cn(-c3ccc(N)nn3)nc2C(F)(F)F)cnc1C(=O)Nc1ccc(C(=O)N2CCN(C(=O)C3CC[N+](C)(C)CC3)CC2)c(Cl)c1 [Example K1, 5-[1-(6-Aminopyridazin-3-yl)-3-(trifluoromethyl)pyrazol-4-yl]-N-[3-chloro-4-[4-(1,1-dimethylpiperidin-1-ium-4-carbonyl)piperazine-1-carbonyl]phenyl]-1-methyl-imidazole-2-carboxamide; 2,2,2-trifluoroacetate] | 1600 |
